Literature values, collected in US8905760B2, “Methods and systems for progressively treating and controlling oral periopathogens causing systemic inflammations” (priority 2008, dated 2014).
Structures can show the parent of a compound that is named as a salt.

Conditions: IPT group: standard periodontal therapy with adjunctive local delivery of minocycline-HCl (Arestin); N=20; P<0.0001, t test

CN(C)c1ccc(O)c2c1C[C@H]1C[C@H]3[C@H](N(C)C)C(O)=C(C(N)=O)C(=O)[C@@]3(O)C(O)=C1C2=O [minocycline-HCl]
reduction of periodontal lesions after therapy (mean difference): 60±23
